Results published in patent US20030118636A1, “Delivery of small hydrophilic molecules packaged into lipid vesicles” (priority 2001, published 2003).
Read-outs that look alike come from different tables or passages of the source.

Experiments:
MscL mutant G22C [1] = molecular target: T1, MscL mutant G22C (Escherichia coli, UniProt P0A742, G22C); assay type: biochemical, E. coli; conditions: for kinetics of calcein release compared to MTSET: 2.5 mM MTSEA, 10 mM MTSES
T1 construct: expressed in transfected cells
T1 sequence (P0A742 2-136 G22C): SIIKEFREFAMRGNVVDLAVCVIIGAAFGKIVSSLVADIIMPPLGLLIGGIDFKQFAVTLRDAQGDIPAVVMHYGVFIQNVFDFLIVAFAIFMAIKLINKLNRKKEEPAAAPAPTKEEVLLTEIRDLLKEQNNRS
Procedure: Samples were prepared, and calcein efflux was monitored as described in examples 1 and 2A.
The membrane reconstitution mixture was incubated for 30 min. at room temperature and 40 mg of detergent-absorbing Bio-Beads SM-2 (Bio-Rad, Inc.) was added and incubated at 4° C. for 30 min. Next, 400 mg Bio-Beads were added and incubated overnight at 4° C. All steps were performed under mild agitation. Samples were prepared for calcein efflux assay as described in example 1.

MscL mutant G22C [2] = molecular target: T1, MscL mutant G22C; conditions: no tension applied (Yoshimura et al.); cited from earlier work
MscL = molecular target: T2, MscL (Escherichia coli, UniProt P0A742, G22C); assay type: biochemical, E. coli
T2 construct: made in house; host or cells: E. coli PB104
T2 sequence (P0A742 2-136 G22C): as above

MscL mutant G22C [3] = molecular target: T1, MscL mutant G22C; assay type: biochemical, E. coli
Procedure: FIGS. 10A-10D. […] Pressure in the pipette, relative to atmospheric, is shown in the lower traces of FIGS. 10A and 10B, and recordings of the current through a cell attached patch of a spheroplast are shown in the upper traces of FIGS. 10A and 10B. […] Buffer: 200 mM KCl, 90 mM MgCl2, 110 mM CaCl2, 5 mM HEPES, pH 6.0. FIGS. 10C and 10D show the histograms of the conductivity preferences of FIGS. 10A and 10B, respectively.
FIGS. 14A-14D. […] 5 μl of G22C spheroplasts were incubated with IMI (2 mM final concentration) or with patch buffer overnight at 4° C. The next day, currents through cell-attached patches held at +20 mV were recorded for unlabeled (FIG. 14A) and labeled (FIG. 14B) proteins and histograms showing the conductance states of each recording are illustrated in FIG. 14C and FIG. 14D, respectively.
Expression, purification, membrane reconstitution, and patch clamp analysis were performed as described in Example 1 or as described below.
Giant spheroplasts were prepared as explained before (Blount, P. et al., Methods Enzymol. Vol. 294:458-482, 1999).

[4] = Urinary excretion of IOT after subcutaneous injection in conscious rats; assay type: in vivo, rat; conditions: free IOT
Procedure: DOPC/DOPS (90:10, mol/mol) and DOPC/DOPE liposomes (70:30, mol/mol) were tested.
Male Wistar rats remained conscious throughout the study. To increase the resolution time, the diuretic furosemide (10 mg/kg dose s.c.) was given in the morning, 7 hours before administration of the sample. Urine was collected automatically with a 1 hour resolution. The concentration of IOT in the urine was measured by HPLC.

[5] = rat; cited from earlier work
MscL mutant G22C [6] = molecular target: T1, MscL mutant G22C; assay: FITC-insulin efflux from liposomes with MscL mutant G22C (filter assay); assay type: biochemical, E. coli; conditions: 1 mM MTSET; DOPC:DOPS 9:1 liposomes with MscL mutant G22C
Procedure: Insulin and fluorescein isothiocyanate (FITC) were obtained from Sigma (St. Louis, Mo., USA). Insulin (23 mg) was reacted with a four-fold molar ratio of FITC in 0.1 N borate buffer, pH 9.0, for 60 min. The pH was lowered to 7.5 with 0.1 N boric acid and the solution was extensively dialyzed, using a dialysis membrane with a molecular weight cut-off of 2,000 Da, for 96 hours against water at 4° C. with frequent water changes. Absorption spectra of the dialyzed sample were used to quantify the protein concentration and the stoichiometry of labeling. Concentrations of FITC and insulin were both 0.1 mM. The labeled insulin was encapsulated by three freeze-thaw cycles, followed by extrusion through a 400 nm polycarbonate membrane. The proteoliposomes containing labeled insulin were separated from free labeled insulin by using sephadex G-50 column chromatography equilibrated with 145 mM NaCl, 300 mM Sucrose, 25 mM Tris.HCl and 1 mM EDTA, pH 8.0.
Samples were taken at different time points and Triton was added as a control for maximum fluorescence (100%). Samples were filtered over a 450 nm Cellulose Nitrate filter (Schleicher & Schuell BA85). The filtrate of 2 ml was retained and the fluorescence of 200 I11 of each filtrate was monitored in an fl600 plate reader (Bio-Tek). All experiments were performed in triplicate.

[7] = humans; cited from earlier work
[8] = free compound
Procedure: The effect of drug formulation on the rate of drug release in vivo was tested in the rat by external counting of radioactivity. The model was based on liposomal formulations that remain at the subcutaneous site of administration with an encapsulated model drug which, when released, was rapidly removed from the subcutaneous site of injection and excreted into the urinary bladder.
Male Wistar rats were anaesthetized using iso-flurane O2/NO throughout the study. Liposome encapsulated MAG3 in a 0.5 ml volume was injected subcutaneously (in the neck) and accumulation of radioactivity in the urinary bladder was constantly monitored by external counting using a gamma-camera (window: 140 keV, 250 keV width, 1 min. time resolution). At the end of the study (after 40 min.), a 10 times higher dose of free MAG3 was administered subcutaneously or intravenously to measure the urinary excretion rates of those formulations.

[9] = DOPC:DOPS 90:10 liposomes with MscL mutant G22C
[10] = 1 mM MTSET, DOPC:DOPS 90:10 liposomes with MscL mutant G22C

2-aminoethyl methanethiosulfonate [MTSEA]
kinetics of calcein release compared to MTSET (MscL mutant G22C [1]; [9]): significantly slower
effect of attachment to the cysteine on gating under patch clamp (MscL mutant G22C [2]): gate spontaneously

Br.BrCc1ccncc1 [BP, 4-(bromomethyl)pyridine hydrobromide]
channel behavior of labeled MscL mutant G22C (MscL; pH 5.2, +20 mV): prefers not to open completely but only to subconducting states and the dwell times get shorter
channel behavior of labeled MscL mutant G22C (MscL; pH 7.2, +20 mV): behaves as an unlabeled channel

COC(=O)C(I)Cc1cnc[nH]1 (stereo not shown) [IMI, methyl 2-iodo-3-(5-imidazolyl)propanoate]
ratio of tension sensitivity of MscL over MscS (MscL mutant G22C [3]; spheroplasts, pH 6): 1.48
channel state in calcein efflux assays (MscL mutant G22C [1]; IMI labeled MscL mutant G22C, pH 7.0 and 8.0 (data not shown)): tendency to stay open at pH 7.0 and 8.0

CNC(=O)c1c(I)c(NC(C)=O)c(I)c(C(=O)O)c1I [IOT, Iodo-thalamate]
first phase urinary excretion [4]: completed in the first couple of hours
excretion via glomerular filtration [5]: 1 ml.min^−1.100 g rat

C[N+](C)(C)CCSS(C)(=O)=O [MTSET, [2-(Trimethylammonium)ethyl]methanethiosulfonate]
effect of attachment on pressure sensitivity and gating (MscL mutant G22C [3]; attached to MscL mutant G22C in spheroplasts): spontaneous gating of the channel
FITC-insulin efflux upon activation (MscL mutant G22C [6]): release of FITC-insulin
encapsulated calcein released (MscL mutant G22C [1]; [10]): 80%
time for half of the MscL mediated efflux (MscL mutant G22C [1]; [10]): ≤ 7 s
calcein release upon addition (MscL mutant G22C [1]; DOPC:Cholesterol 80:20 liposomes with vs without MscL mutant G22C): effective release of calcein
effect of attachment to the cysteine on gating under patch clamp (MscL mutant G22C [2]): gate spontaneously

mertiatide [MAG3]
active tubular secretion [7]: 600 mL/min
time to 50% urinary excretion ([8]; intravenous): 3 min
time to 50% urinary excretion ([8]; subcutaneous): > 12 min

sodium (2-sulfonatoethyl) methane thiosulfonate [MTSES]
kinetics of calcein release compared to MTSET (MscL mutant G22C [1]; [9]): significantly slower
effect of attachment to the cysteine on gating under patch clamp (MscL mutant G22C [2]): gate spontaneously
